In patent publication US9969726B2, “Metabotropic glutamate receptor negative allosteric modulators (NAMS) and uses thereof” (Sanford-Burnham Medical Research Institute, priority 2014, dated 2018):
Where two headings read alike, the source gives them in different places.

Columns and labels:
rat mGlu2 receptor = rat mGlu2 receptor (Rattus norvegicus (Rat), UniProt P31421); assay: mGlu2 in vitro GIRK thallium flux assay; format: cell-based; details: NAM, EC80 glutamate, HEK-293 GIRK cells
Outline: (§1)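 Cells expressing rat mGlu2 or mGlu3 with GIRK, plated overnight at 37 °C. Test compounds (0.3% DMSO, 10-point 1:3 series) preincubated 2.5 or 60 min, then thallium buffer plus EC80 glutamate added. Fluorescence slope 5–15 s after addition, normalised to vehicle and maximal agonist, fitted by four-parameter logistic.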

rat mGlu3 receptor = rat mGlu3 receptor (Rattus norvegicus (Rat), UniProt P31422); assay: mGlu3 in vitro GIRK thallium flux assay; format: cell-based; details: NAM; 2.5 min compound incubation; EC80 glutamate; HEK-293 GIRK cells
Outline: as §1

[1] = Microsomal stability in vitro assay; format: in vitro ADME; details: rat liver microsomes 1 mg/mL, 4 μM compound, 2 mM NADPH
Procedure: Pooled rat liver microsomes (BD Biosciences, #452701) were preincubated with test compounds at 37.5° C. for 5 min in the absence of NADPH. The reaction was initiated by addition of NADPH and incubated under the same conditions. The final incubation concentrations were 4 μM test compound, 2 mM NADPH, and 1 mg/mL (total protein) liver microsomes in phosphate-buffered saline (PBS) at pH 7.4. One aliquot (100 μL) of the incubation mixture was withdrawn at 15 min time points and combined immediately with 100 μL of ACN/MeOH. After mixing, the sample was centrifuged at approximately 13000 rpm for 12 min. The supernatant was filtered and transferred into an autosampler vial and the amount of test compound was quantified using a Shimadzu LCMS 2010EV mass spectrometer. The change of the AUC (area under the curve) of the parent compound as a function of time was used as a measure of microsomal stability. Test compounds were run in duplicate with a positive control.

[2] = Plasma stability in vitro assay; format: in vitro ADME; details: rat plasma, 100 μM, 37.5° C.
Procedure: A 20 μL aliquot of a 10 mM solution in DMSO of the test compound was added to 2.0 mL of heparinized rat plasma (Lampire, P1-150N) to obtain a 100 μM final solution. The mixture was incubated for 1 h at 37.5° C. Aliquots of 100 μL were taken at 15 min intervals and diluted with 100 μL of MeOH/ACN. After mixing, the sample was centrifuged at approximately 13000 rpm for 12 min. The supernatant was filtered and transferred into an autosampler vial and the amount of test compound was quantified using the Shimadzu LCMS-2010EV system. The change of the AUC of the parent compound in function of time was used as a measure of plasma stability.

[3] = PK: brain and plasma levels collected after the FST; format: in vivo, rat; details: Wistar
Procedure: After the habituation swim and 24 hours prior to the test swim, rats were administered one of three doses of a mGlu2/3 NAM, with doses and pretreatment time based on maximal brain penetration as determined by PK studies for each compound. Blood and brain tissue were collected immediately after the FST and the PK properties of each compound were analyzed together with FST behavior. The modified forced swim test was carried out as described previously in Cryan et al., 2003. Briefly, rats were taken from the vivarium and immediately placed individually for 15 min in Pyrex cylinders (21×46 cm; Fisher Scientific, Tustin, Calif.), which were filled with water to a depth of 30 cm. The testing room was bright, and two bright (60-watt) lamps provided extra illumination above the cylinders. The rats were removed 15 min later, dried, and placed in their home cage. Twenty-four hours after their first exposure, the animals were again placed in the swim apparatus for 5 min, and behaviors were monitored from above by video camera for subsequent analysis. The rater of the behavioral patterns was blind with respect to the experimental conditions being scored. A time sampling technique was employed whereby the predominant behavior in each 5-sec period of the 300-sec test was recorded. Climbing behavior consisted of upward-directed movements of the forepaws along the side of the swim chamber. Swimming behavior was defined as movement (usually horizontal) throughout the swim chamber, which also included crossing into another quadrant. Immobility was assigned when no additional activity was observed other than that required to keep the rat's head above water.

[4] = 2.5 min compound incubation, read-out: mGlu2 EC50 (μM) (2.5 min)
[5] = read-out: mGlu2 EC50 (μM) (60 min), 60 min compound incubation
[6] = mGlu2 EC50 (μM) (60 min), 60 min compound incubation
[7] = rat brain tissue, read-out: Brain

Chain of rat mGlu2 receptor (P31421 19-872): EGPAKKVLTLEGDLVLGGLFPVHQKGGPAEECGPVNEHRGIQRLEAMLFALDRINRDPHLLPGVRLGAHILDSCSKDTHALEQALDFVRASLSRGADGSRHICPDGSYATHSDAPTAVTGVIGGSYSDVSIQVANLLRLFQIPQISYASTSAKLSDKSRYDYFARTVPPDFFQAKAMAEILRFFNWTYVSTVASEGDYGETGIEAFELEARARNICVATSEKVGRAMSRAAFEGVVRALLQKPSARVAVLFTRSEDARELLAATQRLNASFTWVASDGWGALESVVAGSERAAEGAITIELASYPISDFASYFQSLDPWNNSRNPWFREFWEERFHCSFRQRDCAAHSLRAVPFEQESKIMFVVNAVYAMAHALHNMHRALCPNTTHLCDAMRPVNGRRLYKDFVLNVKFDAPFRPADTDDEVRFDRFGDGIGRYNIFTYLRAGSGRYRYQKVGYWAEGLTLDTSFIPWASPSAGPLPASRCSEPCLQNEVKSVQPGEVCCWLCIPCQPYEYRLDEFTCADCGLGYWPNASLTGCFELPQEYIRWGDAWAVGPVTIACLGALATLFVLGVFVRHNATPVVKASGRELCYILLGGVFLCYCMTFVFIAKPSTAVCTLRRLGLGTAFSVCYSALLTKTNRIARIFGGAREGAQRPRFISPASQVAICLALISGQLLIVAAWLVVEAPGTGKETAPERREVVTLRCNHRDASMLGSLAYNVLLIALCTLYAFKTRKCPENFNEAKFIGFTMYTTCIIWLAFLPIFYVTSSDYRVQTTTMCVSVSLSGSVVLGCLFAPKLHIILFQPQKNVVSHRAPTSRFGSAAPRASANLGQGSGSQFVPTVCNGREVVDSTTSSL
Chain of rat mGlu3 receptor (P31422 23-879): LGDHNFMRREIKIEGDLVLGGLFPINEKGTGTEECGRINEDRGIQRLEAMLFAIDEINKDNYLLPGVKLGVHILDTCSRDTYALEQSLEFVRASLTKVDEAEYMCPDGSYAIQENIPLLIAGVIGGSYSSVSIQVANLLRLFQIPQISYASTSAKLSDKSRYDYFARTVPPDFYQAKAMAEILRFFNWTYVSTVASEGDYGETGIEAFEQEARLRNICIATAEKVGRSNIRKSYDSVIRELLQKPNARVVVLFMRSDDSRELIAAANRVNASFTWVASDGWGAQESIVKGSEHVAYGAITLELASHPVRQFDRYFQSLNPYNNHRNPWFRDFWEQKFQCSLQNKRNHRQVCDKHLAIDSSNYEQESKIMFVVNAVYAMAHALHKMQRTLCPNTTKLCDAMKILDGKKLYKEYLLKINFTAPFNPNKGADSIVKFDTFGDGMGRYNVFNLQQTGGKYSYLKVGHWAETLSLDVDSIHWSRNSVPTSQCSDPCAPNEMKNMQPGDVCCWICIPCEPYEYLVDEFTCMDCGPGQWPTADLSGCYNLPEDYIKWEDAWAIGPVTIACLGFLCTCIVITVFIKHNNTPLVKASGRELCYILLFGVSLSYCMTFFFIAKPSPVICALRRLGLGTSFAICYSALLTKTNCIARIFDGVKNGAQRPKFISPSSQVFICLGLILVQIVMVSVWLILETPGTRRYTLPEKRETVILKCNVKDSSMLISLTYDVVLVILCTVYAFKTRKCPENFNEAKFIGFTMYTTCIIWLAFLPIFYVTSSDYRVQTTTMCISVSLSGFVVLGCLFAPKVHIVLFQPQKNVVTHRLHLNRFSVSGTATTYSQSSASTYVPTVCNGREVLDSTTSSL

EC50 (rat mGlu2 receptor; [6]) | SMILES | EC50 (rat mGlu2 receptor; [4]) | EC50 (rat mGlu2 receptor; [5]) | EC50 (rat mGlu3 receptor) | Microsomal Stability, Percent Remaining @ 1 hour [1] | Plasma Stability, Percent Remaining @ 1 hour [2] | concentration at 24 h [3, 7] | concentration at 24 h ([3]; rat plasma, read-out: Plasma)
– | Cc1cc2c(cc1C(F)(F)F)NC(=O)CC(c1cccc(S(=O)(=O)c3ncccn3)c1)=N2 [Example 137, 7-Methyl-4-(3-(pyrimidin-2-ylsulfonyl)phenyl)-8-(trifluoromethyl)-1H-benzo[b][1,4]diazepin-2(3H)-one] | 0.45 µM | 0.06 µM | 0.3 µM | 68% | 66% | – | –
0.35 µM | O=C(O)c1cc(F)cc(-c2cccc(-c3csc(-c4ccccc4)n3)c2)c1 [Example 9, 5-Fluoro-3′-(2-phenylthiazol-4-yl)biphenyl-3-carboxylic Acid] | 0.64 µM | – | > 10 µM | 4% | 98% | – | –
– | O=C(O)c1cc(-c2cccc(-c3nc(-c4ccoc4)cc(C(F)(F)F)n3)c2)ccc1F [Example 94, 4-Fluoro-3′-(4-(furan-3-yl)-6-(trifluoromethyl)pyrimidin-2-yl)biphenyl-3-carboxylic Acid] | – | 0.14 µM | 0.28 µM | – | – | 0.49 ± 0.06 µM | 15.9 ± 0.95 µM
> 30 µM | O=C(O)c1cccc(-c2cccc(-c3cc(-c4ccccc4)on3)c2)c1 [Example 49, 3′-(5-Phenylisoxazol-3-yl)-[1,1′-biphenyl]-3-carboxylic Acid] | > 10 µM | – | > 10 µM | – | – | 0.5 ± 0.05 µM | 19.2 ± 2.1 µM
– | O=C(O)c1ccc(F)c(-c2cccc(-c3nc(-c4ccc(C(F)(F)F)nc4)cc(C(F)(F)F)n3)c2)c1 [Example 79, 6-Fluoro-3′-(4-(trifluoromethyl)-6-(6-(trifluoromethyl)pyridin-3-yl)pyrimidin-2-yl)biphenyl-3-carboxylic Acid] | 0.83 µM | 0.09 µM | 0.89 µM | 82% | 86% | – | –
0.05 µM | O=C(O)c1cc(-c2cccc(-c3nsc(-c4ccccc4)n3)c2)ccc1F [Example 38, 4-Fluoro-3′-(5-phenyl-1,2,4-thiadiazol-3-yl)biphenyl-3-carboxylic Acid] | 0.1 µM | – | 0.52 µM | 2% | 65% | – | –
– | O=C(O)c1cc(F)cc(-c2cccc(-c3nc(-c4ccc(C(F)(F)F)nc4)cc(C(F)(F)F)n3)c2)c1 [Example 76, 5-Fluoro-3′-(4-(trifluoromethyl)-6-(6-(trifluoromethyl)pyridin-3-yl)pyrimidin-2-yl)biphenyl-3-carboxylic Acid] | 1.53 µM | 0.09 µM | 1.61 µM | 95% | 100% | – | –
– | O=C(O)c1cc(-c2cccc(-c3nc(-c4ccsc4)cc(C(F)(F)F)n3)c2)ccc1F [Example 122, 4-Fluoro-3′-(4-(thiophen-3-yl)-6-(trifluoromethyl)pyrimidin-2-yl)-[1,1′-biphenyl]-3-carboxylic Acid] | – | 0.07 µM | 0.53 µM | 83% | 83% | – | –
– | COc1ccc(-c2cc(C(F)(F)F)nc(-c3cccc(-c4ccc(F)c(C(=O)O)c4)c3)n2)cc1 [Example 87, 4-Fluoro-3′-(4-(4-methoxyphenyl)-6-(trifluoromethyl)pyrimidin-2-yl)biphenyl-3-carboxylic Acid] | 1.07 µM | 0.06 µM | 1 µM | 92% | 97% | – | –
– | O=C(O)c1cc(-c2cccc(-c3nc(-c4ccc(C(F)(F)F)nc4)cc(C(F)(F)F)n3)c2)ccc1F [Example 73, 4-Fluoro-3′-(4-(trifluoromethyl)-6-(6-(trifluoromethyl)pyridin-3-yl)pyrimidin-2-yl)biphenyl-3-carboxylic Acid] | 0.82 µM | 0.17 µM | 1.18 µM | – | – | 0.14 ± 0.09 µM | 9.01 ± 2.23 µM
0.48 µM | O=C(O)c1cc(-c2cccc(-c3csc(-c4ccccc4)n3)c2)ccc1F [Example 1, 4-Fluoro-3′-(2-phenylthiazol-4-yl)biphenyl-3-carboxylic Acid] | 0.33 µM | – | 1.21 µM | 3% | 93% | – | –
– | O=C(O)c1ccc(F)c(-c2cccc(-c3nc(-c4ccoc4)cc(C(F)(F)F)n3)c2)c1 [Example 114, 6-Fluoro-3′-(4-(furan-3-yl)-6-(trifluoromethyl)pyrimidin-2-yl)biphenyl-3-carboxylic Acid] | 0.4 µM | – | 1.36 µM | 66% | 93% | – | –
– | N#Cc1cc(C2=Nc3ccc(C(F)(F)F)cc3NC(=O)C2)ccn1 [Example 184, 4-(2-Oxo-8-(trifluoromethyl)-2,3-dihydro-H-benzo[b][1,4]diazepin-4-yl)picolinonitrile] | 0.49 µM | 0.07 µM | 0.41 µM | 97% | 100% | – | –
– | Cc1cc2c(cc1C(F)(F)F)NC(=O)CC(c1cccc(Sc3ncccn3)c1)=N2 [Example 136, 7-Methyl-4-(3-(pyrimidin-2-ylthio)phenyl)-8-(trifluoromethyl)-1H-benzo[b][1,4]diazepin-2(3H)-one] | 0.88 µM | 0.04 µM | 0.81 µM | 90% | 99% | – | –
– | O=C1CC(c2cccc(-c3cccnc3)c2)=Nc2ccc(Br)cc2N1 [Example 179, 8-Bromo-4-(3-(pyridin-3-yl)phenyl)-1,3-dihydro-2H-benzo[b][1,4]diazepin-2-one] | 2.74 µM | 0.02 µM | 1.37 µM | 30% | 100% | – | –
– | O=C(O)c1cc(F)cc(-c2cccc(-c3nc(-c4ccco4)cc(C(F)(F)F)n3)c2)c1 [Example 89, 5-Fluoro-3′-(4-(furan-2-yl)-6-(trifluoromethyl)pyrimidin-2-yl)biphenyl-3-carboxylic Acid] | 1.24 µM | 0.14 µM | 2.25 µM | 82% | 100% | – | –
– | O=C(O)c1cc(-c2cccc(-c3nc(-c4ccccc4)cc(C(F)(F)F)n3)c2)ccc1F [Example 86, 4-Fluoro-3′-(4-phenyl-6-(trifluoromethyl)pyrimidin-2-yl)biphenyl-3-carboxylic Acid] | 0.8 µM | 0.04 µM | 0.92 µM | 100% | 100% | – | –
1.48 µM | Cn1nc(-c2cccc(-c3cccc(C(=O)O)c3)c2)nc1-c1ccccc1 [Example 50, 3′-(1-Methyl-5-phenyl-1H-1,2,4-triazol-3-yl)-[1,1′-biphenyl]-3-carboxylic Acid] | 0.59 µM | – | > 10 µM | – | – | – | –
